Several values for one entry are separate records, joined by “and”; a condition that tells them apart may be missing. Equal entries are not always repeated.
How the values were obtained:
human CB2 receptor [1] = target: T1, human CB2 receptor (Homo sapiens (Human), UniProt P34972); assay: Membrane [35S]GTPγS binding assay; assay type: biochemical
Procedure: Human CB2 expressing CHO-K1 membranes (5 μg per incubation mixture) were diluted in 50 mM Tris-HCl (pH 7.5) and 0.5 mM EDTA and added to HU compounds in a pre-mixed incubation cocktail. Final incubation concentrations were 55 mM Tris-HCl (pH 7.4), 1 mM EDTA, 100 mM NaCl, 5 mM MgCl2, 0.5% BSA, 50 μM GDP, 0.2 nM [^35S]GTPγS (PerkinElmer) with varied HU compound concentration and 5 μg membrane. Incubations were continued for 60 minutes at 30° C. in a shaking water bath. Assays were terminated by addition of 2 ml ice cold wash buffer (50 mM Tris-HCl, pH 7.5 and 5 mM MgCl2) and filtration through pre-soaked GF/C filters (Whatman), followed by two further washes. adioactivity was determined as described for competition binding assays.
Data was analyzed using the Prism 4.02 programme (GraphPad Software, San Deigo, Calif., USA). IC50 and EC50 values, as determined from sigmoidal curves, were generated from drug concentrations plotted in log scale. […] It is possible to display data as an average, plus or minus the standard error of the mean in log form, however, this is not easily interpreted or compared to other values. It was therefore elected to calculate the 95% confidence interval for the mean value in log form and then convert the lower limit, mean and upper limit into the molar (linear) scale. […] Two-tailed t-tests for statistical analysis between enantiomeric pairs of compounds were performed for CB2 Ki values. The Pearson value, an indication of linearity, was determined for Ki and IC50 or EC50 results obtained for CB2 receptors in binding, cAMP or GTPγS experiments, respectively.

human CB1 receptor = human CB1 receptor (Homo sapiens (Human), UniProt P21554); assay: cell-based; settings: whole cells expressing CB1, 50 μM forskolin; read-out: cAMP Assay CB1 Receptor IC50
Chain of human CB1 receptor (P21554 whole entry): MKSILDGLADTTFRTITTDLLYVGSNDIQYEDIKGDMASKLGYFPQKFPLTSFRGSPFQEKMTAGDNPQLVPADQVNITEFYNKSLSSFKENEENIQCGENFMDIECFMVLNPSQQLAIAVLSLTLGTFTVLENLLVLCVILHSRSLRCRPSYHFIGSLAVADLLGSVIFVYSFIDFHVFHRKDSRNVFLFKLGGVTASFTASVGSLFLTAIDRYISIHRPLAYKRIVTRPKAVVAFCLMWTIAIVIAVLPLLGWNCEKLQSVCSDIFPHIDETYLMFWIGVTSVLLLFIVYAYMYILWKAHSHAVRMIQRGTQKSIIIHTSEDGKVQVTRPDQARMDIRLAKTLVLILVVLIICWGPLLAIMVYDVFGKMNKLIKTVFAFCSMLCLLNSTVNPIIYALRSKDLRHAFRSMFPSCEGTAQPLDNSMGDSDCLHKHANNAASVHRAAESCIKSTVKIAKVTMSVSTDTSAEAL
Description: (§1) The cDNA clones for human HA-tagged CB1 and CB2 receptors were obtained from the Missouri S&T cDNA Resource Center (www.cdna.org) in cloning vector pcDNA3.1+. The vector containing the human CB2 receptor was transfected directly into CHO-KI cells obtained from ATCC. The HA-tagged human CB1 receptor sequence was subcloned into the pef4-V5-HisA vector with Kpn1 and Pme1 restriction enzymes and subsequently transfected into CHO-K1 cells. Cells were clonally isolated by limited dilution and screened by immunocytochemistry for expression of the HA tag.
(§2) Cells were maintained in DMEM/F12 media supplemented with 10% fetal bovine serum (FBS), 100 units/ml penicillin and 100 μg/ml streptomycin and 2 mM L-glutamine. Transfected cell lines were maintained with additional 150 ug/ml zeocin for pEF HA-CB1 transfected cells and 500 ug/ml G-418 for pcDNA HA-CB2 transfected cells (all reagents obtained from Invitrogen).
(§3) Cells were seeded at a density of 10,000 cells per well in poly-L-lysine treated 96-well culture plates (BD Biosciences). The following day wells were incubated with 40 μl DMEM/F12 containing 0.5% (w/v) BSA and 0.5 mM 3-isobutyl-1-methylxanthine (Sigma-Aldrich) for 30 minutes prior to 15 min stimulation with 50 μM forskolin (Tocris Cookson) and varying concentrations of indicated compounds at 37° C., 5% CO2. Assays were stopped by removal of media and addition of 100% ice cold ethanol. Plates were then frozen for a minimum of two hours before complete evaporation of ethanol. The well contents were then reconstituted in 50 μl cAMP assay buffer (20 mM HEPES pH 7.5 and 5 mM EDTA). Half of the reconstituted sample was transferred to round bottom 96-well plates (Greiner Bio-One GmbH) with 50 μl 0.01% w/v PKA (cAMP dependent protein kinase (Sigma-Aldrich) in 1 mM Na citrate pH 6.5 with 2 mM dithiothreitol) and 25 μl [^3H]-cAMP (at 22 nM in cAMP assay buffer) (GE Healthcare, Life Sciences). This was allowed to equilibrate for 3-18 hours. Following this a charcoal slurry (5% (w/v) activated charcoal and 0.2% (w/v) BSA in cAMP assay buffer) was added to the samples and the plates centrifuged at 3000×g, 4° C. for 5 min. Radioactive counts within the supernatant were then determined as described for competition binding assays.
(§4) pIC50 values were determined from cAMP assays by fitting a sigmoidal concentration response curve using Prism 4.02.

human CB2 receptor [2] = target: T1, human CB2 receptor; assay: cell-based; settings: for Emax: CHO, read-out: cAMP Assay CB2 Receptor Emax; for IC50: read-out: cAMP Assay CB2 Receptor IC50
Description: as §1, §2, §3, §4

closed head injury (CHI) = assay: Closed head injury (CHI) model, neurological severity score, C57Bl mice; assay type: in vivo
Procedure: The study was conducted according to the guidelines of the Institutional Animal Care Committee of the Hebrew University. Male Sabra mice weighing 35 to 50 g were used in all experiments. Animals were kept under controlled light conditions with a 12 h/12 h light/dark cycle. Experimental closed head injury (CHI) was induced using a modified weight drop device developed in our laboratory as described previously (Chen et al., 1996). At 1 h after CHI, the functional status of the mice was evaluated according to a set of 10 neurobehavioral tasks, namely the neurological severity score (NSS). This score is based on the ability of the mice to perform 10 different tasks (Beni-Adani et al., 2001) that evaluate their motor ability, balance, and alertness. One point is given for failing to perform a task. The severity of injury is indicated by the initial NSS, which is evaluated 1 h after CHI and is also a reliable predictor of the later outcome. A score of 10 reflects maximal neurologic impairment, and a decrease of NSS during the recovery period indicates partial recovery of function.
Data was analyzed using the Prism 4.02 programme (GraphPad Software, San Deigo, Calif., USA). The data are expressed as mean±SEM and statistical significance was assessed with one way analysis of variance (ANOVA) followed by a Dunnett's post-hoc analysis for TNF-α levels. […]

Row | Compound | EC50 (human CB2 receptor [1]) [nM] | Emax (human CB2 receptor [1]; read-out: [35S]GTPγS Emax) [%] | IC50 (human CB1 receptor) [nM] | Emax (human CB2 receptor [2]) [%] | IC50 (human CB2 receptor [2]) [nM] | recovery, Neurological Severity Score (NSS) (closed head injury (CHI); HU-914 2.5 and 5 mg/kg i.p., day 14 post injury, vs vehicle or 10 mg/kg) | most effective doses (NSS recovery) (closed head injury (CHI); i.p. 1 h after CHI, followed 14 days)
1 | CCCCCCC(C)(C)c1cc(OC)c(C2=C[C@H]3CC[C@]2(CO)C3(C)C)c(OC)c1 [HU-910, (1S,4R)-(2-(2,6-dimethoxy-4-(2-methyloctan-2-yl)phenyl)-7,7-dimethylbicyclo[2.2.1]hept-2-en-1-yl)methanol] | 26.4 | 121 ± 7 | > 50000 | 105 ± 12 | 162 |  | 
2 | CCCCCCC(C)(C)c1cc(OC)c(C2=C[C@H]3CC[C@]2(C(=O)O)C3(C)C)c(OC)c1 [HU-914, (1S,4R)-2-(2,6-dimethoxy-4-(2-methyloctan-2-yl)phenyl)-7,7-dimethylbicyclo[2.2.1]hept-2-ene-1-carboxylic acid] |  |  | > 50000 | 82 ± 7 | 2290 | significant greater recovery | 2.5 mg/kg and 5 mg/kg

From US9365534B2, “Arylated camphenes, processes for their preparation and uses thereof” (Yissum Research Development Company of the Hebrew …, priority 2009, dated 2016)
